# US5089623A, “Certain imidate insecticides” (Imperial Chemical Industries Plc, priority 1990, dated 1992)
# Assays:
# Assay type in all cases: in vivo
# [1] = system: Housefly [Musca domestica]; experiment: Housefly insecticidal test (HF); conditions: per 25 female houseflies, 48 hours
# [2] = system: Tobacco Budworm [Heliothis virescens (Fabricius)]; experiment: Tobacco budworm contact test (TBW-C); conditions: second-instar larvae, 5 days, percent in solution
# Summary of the method: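 Cotton cotyledons dipped 2–3 s in compound in 50:50 acetone–water, dried, then infested with 5 second-instar larvae and held 5 days at high humidity before scoring mortality.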
# [3] = system: Tobacco Budworm [Heliothis virescens (Fabricius)] eggs; experiment: Tobacco budworm egg test (TBW-E); conditions: percent in solution
# [4] = system: Cabbage Looper [Trichoplusia ni (Hubner)]; experiment: Cabbage looper test (CL); conditions: second-instar larvae, 3-5 days, percent in solution
# [5] = system: Aster Leafhopper [Macrosteles fascifrens (Stal)]; experiment: Aster leafhopper test (LH); conditions: adults/nymphs, 48 hours, percent in solution
# [6] = system: Maize weevil [Sitophilus Zeamais (Motschulsky)]; experiment: Maize weevil test (MW); conditions: adult weevils, treated corn seeds, 48 hours, percent in solution
# Summary of the method: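 Adult weevils (10) were placed with four corn seeds that had been dipped 2-3 s in compound dissolved in 50:50 acetone:water, then dried, and held at about 25° C. Mortality was scored at 48 h. LC50 was taken from dosage-mortality curves and expressed as percent compound in solution, from a 0.01% top concentration.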
# [7] = system: Rice water weevil [Lissorhoptrus oryzophilus (Kuschel)]; experiment: Rice water weevil test (RWW); conditions: per weevil, topical, female adults, 48 hours
# Description: The compounds in Tables 1 and 2 above were tested for insecticidal activity using the following testing procedures. LC50 values, based on the results of these tests and calculated according to dosage-mortality curves, are expressed in Table 3.
# Rice water weevil [Lissorhoptrus oryzophilus (Kuschel)]
# Test compounds were diluted in acetone. Droplets (1 ul) of test solutions were applied to the ventral abdomens of ten female adult weevils. The treated weevils were placed in containers with wet cotton balls and rice foliage. The containers were covered and kept at a temperature of about 25° C. Mortality was recorded after 48 hours. […] The LC50 values are expressed below in Table 3 under the heading "RWW" in terms of μg of test compound per weevil.
# [8] = system: Beet Armyworm (Spodoptera exigua); experiment: Beet armyworm test (BAW); conditions: second-instar larvae, five days, percent in solution
# Summary of the method: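 Sugar beet leaves were dipped 2-3 s in compound diluted in 50-50 acetone-water, dried, then infested with five second-instar larvae in humid dishes. Mortality was scored after five days at concentrations from 0.1% downward. LC50 was taken from dosage-mortality curves as percent compound in solution.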
Compound,LC50 HF [1] [µg],LC50 TBW C [2] [%],LC50 TBW E [3] [%],LC50 CL [4] [%],LC50 LH [5] [%],LC50 MW [6] [%],LC50 RWW [7] [µg],LC50 BAW [8] [%]
CC(C)C(=Nc1ccc(F)c(Br)c1)OCc1ccc(F)c(Oc2ccc(Cl)cc2)c1 [Compound 298],13,0.0008,0.015,0.0001,0.0001,0.008,> 2.5,
CC(C)C(=Nc1ccc2c(c1)OC(F)(F)O2)OCc1cccc(Oc2ccc(F)cc2)c1 [Compound 244],14,0.00025,> 0.1,0.00004,,0.0025,0.09,0.002
CC(C)C(=Nc1ccc(OC(F)(F)F)cc1)OCc1ccc(F)c(Oc2ccc(F)cc2)c1 [Compound 286],34,0.00017,0.005,0.000024,0.0006,0.0039,0.09,0.0004
CC(C)C(=Nc1ccc(OC(F)(F)F)cc1)OCc1ccc(F)c(Oc2ccc(Cl)cc2)c1 [Compound 323],> 100,0.00065,0.045,0.0006,0.05,0.0075,0.16,0.0025
CC(C)C(=Nc1ccc(F)c(C(F)(F)F)c1)OCc1ccc(F)c(Oc2ccccc2)c1 [Compound 300],14,0.001,0.024,0.0003,0.00002,0.01,0.075,
CC(C)C(=Nc1ccc2c(c1)OCO2)OCc1cccc(Oc2ccccc2)c1 [Compound 180],2,0.003,0.03,0.0004,0.0015,0.008,> 2.5,0.005
CC(C)C(=Nc1ccc2c(c1)OC(F)(F)O2)OCc1cccc(Oc2ccccc2)c1 [Compound 245],20,0.0015,0.016,0.0035,,0.006,> 2.5,0.001
CC(C)C(=Nc1ccc(F)c(F)c1)OCc1ccc(F)c(Oc2ccc(Cl)cc2)c1 [Compound 295],7.8,0.0005,0.01,0.00004,0.0001,0.0053,> 2.5,
CC(C)C(=Nc1ccc(F)c(Cl)c1F)OCc1ccc(F)c(Oc2ccc(F)cc2)c1 [Compound 330],5,0.00035,0.037,0.00012,< 0.05,0.001,0.06,
CC(C)C(=Nc1ccc(C(F)(F)F)cc1)OCc1ccc(F)c(Oc2ccccc2)c1 [Compound 337],21,0.0005,0.008,0.0007,,0.0053,0.067,0.0005
CC(C)C(=Nc1ccc2c(c1)OCO2)OCc1ccc(F)c(Oc2ccccc2)c1 [Compound 181],25,0.001,0.01,0.0005,,0.005,> 2.5,0.001
CC(C)C(=Nc1ccc(F)c(Br)c1)OCc1ccc(F)c(Oc2ccc(F)cc2)c1 [Compound 273],7,0.00025,0.015,0.000018,0.0003,0.004,> 2.5,0.0017
CC(C)C(=Nc1ccc(F)c(Cl)c1)OCc1cccc(Oc2ccc(F)cc2)n1 [Compound 461],6,,0.01,0.00008,,0.0075,> 2.5,0.0035
CC(C)C(=Nc1ccc(F)c(Cl)c1)OCc1cccc(Oc2ccccc2)c1 [Compound 81],4,0.0009,0.007,0.0006,0.0003,0.005,> 0.5,0.003
CC(C)C(=Nc1ccc(Cl)c(Cl)c1)OCc1ccc(F)c(Oc2ccc(Cl)cc2)c1 [Compound 296],38,0.00045,0.025,0.00025,0.0003,,0.14,
CC(C)C(=Nc1ccc(F)c(F)c1)OCc1ccc(F)c(Oc2ccccc2)c1 [Compound 336],3.6,0.0005,0.02,0.00017,,0.0091,> 2.5,0.001
CC(C)C(=Nc1ccc(Cl)cc1)OCc1cccc(Oc2ccc(Cl)cc2)c1 [Compound 269],25,0.001,0.04,0.0003,0.003,> 0.01,> 2.5,0.0024
CC(C)C(=Nc1ccc(OC(F)(F)F)cc1)OCc1ccc(F)c(Oc2ccccc2)c1 [Compound 338],26,0.00037,0.01,0.000065,,0.0053,0.044,
CC(C)C(=Nc1ccc(F)cc1)OCc1ccc(F)c(Oc2ccc(Cl)cc2)c1 [Compound 325],5,0.0006,0.037,0.00012,,,> 2.5,0.0025
CC(C)C(=Nc1ccc(C(F)(F)F)cc1)OCc1ccc(F)c(Oc2ccc(Cl)cc2)c1 [Compound 324],> 100,0.0004,0.025,0.00014,,,0.06,0.0024
CC(C)C(=Nc1ccc(F)c(Cl)c1F)OCc1ccc(F)c(Oc2ccccc2)c1 [Compound 451],3.6,0.00025,> 0.1,0.0001,0.0002,0.0051,0.065,
CC(C)C(=Nc1ccc2c(c1)OC(F)(F)O2)OCc1ccc(F)c(Oc2ccccc2)c1 [Compound 285],36,0.00017,0.005,0.000075,,0.005,0.13,0.0006
CC(C)C(=Nc1cc(F)cc(F)c1)OCc1cccc(Oc2ccccc2)c1 [Compound 55],> 100,0.004,0.06,0.0017,0.0005,,> 2.5,0.006
CC(C)C(=Nc1ccc(F)c(I)c1)OCc1ccc(F)c(Oc2ccc(F)cc2)c1 [Compound 281],5,0.00025,0.006,0.00002,,0.005,> 2.5,0.0027
CC(C)C(=Nc1ccc(F)c(Cl)c1F)OCc1cccc(Oc2ccc(Cl)cc2)c1 [Compound 331],20,0.0004,0.04,0.0002,,,> 2.5,0.002
FC(F)(F)c1cccc(N=C(OCc2cccc(Oc3ccccc3)c2)C(Cl)Cl)c1 [Compound 66],9.7,,0.06,< 0.0025,0.001,,> 2.5,0.0065
